Measurements reported in patent US7163946B2 (Ligand Pharmaceuticals Incorporated, priority 2002, dated 2007).

Biological target: T1, hPR (Homo sapiens, UniProt P06401)
T1 sequence (P06401 1-933): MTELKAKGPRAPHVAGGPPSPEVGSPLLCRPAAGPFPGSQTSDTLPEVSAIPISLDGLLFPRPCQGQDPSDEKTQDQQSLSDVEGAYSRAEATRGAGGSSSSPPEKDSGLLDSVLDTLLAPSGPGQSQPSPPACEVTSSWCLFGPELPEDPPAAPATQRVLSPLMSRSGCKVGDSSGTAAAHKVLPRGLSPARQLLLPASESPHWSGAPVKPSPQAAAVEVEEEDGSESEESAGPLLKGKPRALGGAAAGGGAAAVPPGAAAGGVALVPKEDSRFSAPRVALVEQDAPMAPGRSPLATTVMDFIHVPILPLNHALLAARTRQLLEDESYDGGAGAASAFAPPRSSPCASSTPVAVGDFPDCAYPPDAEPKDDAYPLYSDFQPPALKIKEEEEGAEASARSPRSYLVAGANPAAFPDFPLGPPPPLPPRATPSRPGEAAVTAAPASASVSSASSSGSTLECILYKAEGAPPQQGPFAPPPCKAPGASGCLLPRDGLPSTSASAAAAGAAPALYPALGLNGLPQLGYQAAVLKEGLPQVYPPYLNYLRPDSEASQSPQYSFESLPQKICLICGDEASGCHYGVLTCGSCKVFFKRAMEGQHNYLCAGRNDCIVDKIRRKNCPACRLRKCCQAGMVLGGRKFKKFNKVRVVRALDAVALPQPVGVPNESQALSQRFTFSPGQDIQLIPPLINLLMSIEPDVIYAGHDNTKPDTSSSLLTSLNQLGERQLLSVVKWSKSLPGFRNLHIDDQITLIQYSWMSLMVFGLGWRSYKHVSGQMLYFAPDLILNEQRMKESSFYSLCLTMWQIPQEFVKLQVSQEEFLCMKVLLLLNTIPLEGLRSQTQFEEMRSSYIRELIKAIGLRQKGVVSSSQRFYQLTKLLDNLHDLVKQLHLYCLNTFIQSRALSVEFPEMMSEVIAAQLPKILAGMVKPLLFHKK
Assay: hPR cotransfection assay in CV-1 cells, agonist mode
Format: cell-based
Settings: Tables 3 and 4, values without footnote; read-out: hPR agonist potencies (EC50 in nM) in the cotransfection assay
Method: Antagonist efficacy was determined as a function (%) of maximal inhibition of a reference agonist at EC50 concentration. All the cotransfection experiments were carried out in 96-well plates by automation (Beckman Biomomek automated workstation).

With `C=CCC1Oc2ccc(F)cc2-c2ccc3c(c21)C(C)=CC(C)(C)N3` (centres unmarked) [Formula I X=9-F Allyl, reference compound] as the compound, how does the EC50 read?
Its EC50 is 7.5 nM.

Which EC50 does the source give for `CC1=CC(C)(C)Nc2ccc3c(c21)/C(=C/c1ccccc1)Oc1cc(F)ccc1-3` [Formula II X=8-F Phenyl, reference compound] here?
The EC50 was 187 nM.

With `CC1=CC(C)(C)Nc2ccc3c(c21)/C(=C/c1ccc(F)cc1)Oc1ccc(F)cc1-3` [Formula II X=9-F 4-F-Ph, reference compound] as the compound, how does the EC50 read?
Its EC50 is 3.95 nM.

How did the EC50 turn out when `CC1=CC(C)(C)Nc2ccc3c(c21)/C(=C/c1ccccc1Cl)Oc1ccc(F)cc1-3` [Formula II X=9-F 2-Cl-Ph, reference compound] was run?
The EC50 was 12 nM.

`CC1=CC(C)(C)Nc2ccc3c(c21)/C(=C/c1ccncc1C)Oc1ccc(F)cc1-3` [Formula II X=9-F 3-Me-4-pyridinyl, reference compound] was tested. Which EC50 did it give?
Its EC50 is 2 nM.

`CC1=CC(C)(C)Nc2ccc3c(c21)C(c1cccc(C)c1)Oc1ccc(C)cc1-3` (centres unmarked) [Formula I X=9-Me 3-Me-Ph, reference compound] was tested. Which EC50 did it give?
Its EC50 is 44 nM.

For `CC1=CC(C)(C)Nc2ccc3c(c21)/C(=C/c1ccccc1)Oc1c(Cl)cccc1-3` [Formula II X=7-Cl Phenyl, reference compound], which EC50 is on record?
The EC50 was 6.2 nM.

How did the EC50 turn out when `CC1=CC(C)(C)Nc2ccc3c(c21)/C(=C/c1cc(F)ccc1F)Oc1cc(O)ccc1-3` [Formula II X=8-OH 2,5-diF-Ph, reference compound] was run?
The EC50 was 10 nM.

How did the EC50 turn out when `COc1ccc2c(c1)O/C(=C\c1ccccc1F)c1c-2ccc2c1C(C)=CC(C)(C)N2` [Formula II X=8-OMe 2-F-Ph, reference compound] was run?
Its EC50 is 45 nM.

For `CC1=CC(C)(C)Nc2ccc3c(c21)C(c1cccc(C(F)(F)F)c1)Oc1ccc(Cl)cc1-3` (centres unmarked) [Formula I X=9-Cl 3-CF3-Ph, reference compound], which EC50 is on record?
Its EC50 is 7.4 nM.

`CC1=CC(C)(C)Nc2ccc3c(c21)C(c1cccc(C(F)(F)F)c1)Oc1c(F)cc(F)cc1-3` (racemic) [Compound 56, (±)-7,9-difluoro-5-[3-(trifluoromethyl)phenyl]-1,2-dihydro-2,2,4-trimethyl-5H-chromeno[3,4-f]quinoline] was tested. Which EC50 did it give?
Its EC50 is 1.6 nM.

With `CC1=CC(C)(C)Nc2ccc3c(c21)/C(=C/c1ccccc1C)Oc1c(F)cc(F)cc1-3` [Compound 81, 7,9-difluoro-5(Z)-(2-methylbenzylidene)-1,2-dihydro-2,2,4-trimethyl-5H-chromeno[3,4-f]quinoline] as the compound, how does the EC50 read?
The EC50 was 1.66 nM.

`CC1=CC(C)(C)Nc2ccc3c(c21)/C(=C/c1cc(F)ccc1F)Oc1ccc(F)cc1-3` [Formula II X=9-F 2,5-diF-Ph, reference compound] was tested. Which EC50 did it give?
The EC50 was 3 nM.

Which EC50 does the source give for `COc1ccc2c(c1)O/C(=C\c1ccccc1OC)c1c-2ccc2c1C(C)=CC(C)(C)N2` [Formula II X=8-OMe 2-MeO-Ph, reference compound] here?
Its EC50 is 24 nM.

For `CC1=CC(C)(C)Nc2ccc3c(c21)/C(=C/c1ccccc1C)Oc1cc(F)ccc1-3` [Formula II X=8-F 2-Me-Ph, reference compound], which EC50 is on record?
The EC50 was 13 nM.

With `CC1=CC(C)(C)Nc2ccc3c(c21)/C(=C/c1cccs1)Oc1ccc(F)cc1-3` [Formula II X=9-F 2-Thienyl, reference compound] as the compound, how does the EC50 read?
Its EC50 is 18 nM.

`CC1=CC(C)(C)Nc2ccc3c(c21)/C(=C/c1cccc(F)c1C)Oc1c(F)cc(F)cc1-3` [Compound 21, 7,9-difluoro-5(Z)-(2-methyl-3-fluorobenzylidene)-1,2-dihydro-2,2,4-trimethyl-5H-chromeno[3,4-f]quinoline] was tested. Which EC50 did it give?
The EC50 was 8.2 nM.

For `COc1ccc(F)cc1/C=C1\Oc2ccc(O)cc2-c2ccc3c(c21)C(C)=CC(C)(C)N3` [Formula II X=9-OH 2-MeO-5-F-Ph, reference compound], which EC50 is on record?
Its EC50 is 11.5 nM.

Which EC50 does the source give for `CC1=CC(C)(C)Nc2ccc3c(c21)/C(=C/c1ccccc1F)Oc1ccc(F)cc1-3` [Formula II X=9-F 2-F-Ph, reference compound] here?
The EC50 was 7.3 nM.

For `CC1=CC(C)(C)Nc2ccc3c(c21)/C(=C/c1cccc(F)c1)Oc1cc(F)ccc1-3` [Formula II X=8-F 3-F-Ph, reference compound], which EC50 is on record?
Its EC50 is 109 nM.

With `CC1=CC(C)(C)Nc2ccc3c(c21)/C(=C/c1ccccc1C)Oc1ccc(Cl)cc1-3` [Formula II X=9-Cl 2-Me-Ph, reference compound] as the compound, how does the EC50 read?
Its EC50 is 8.5 nM.

Which EC50 does the source give for `CC1=CC(C)(C)Nc2ccc3c(c21)/C(=C/c1ccc(F)cc1)Oc1c(F)cc(F)cc1-3` [Compound 16, 7,9-difluoro-5(Z)-(4-fluorobenzylidene)-1,2-dihydro-2,2,4-trimethyl-5H-chromeno[3,4-f]quinoline] here?
Its EC50 is 3.7 nM.

How did the EC50 turn out when `CC1=CC(C)(C)Nc2ccc3c(c21)/C(=C/c1cc(F)ccc1C)Oc1cc(F)c(F)cc1-3` [Formula II X=8,9-diF 2-Me-5-F-Ph, reference compound] was run?
Its EC50 is 3.95 nM.

How did the EC50 turn out when `COc1ccc(F)cc1/C=C1\Oc2ccc(F)cc2-c2ccc3c(c21)C(C)=CC(C)(C)N3` [Formula II X=9-F 2-MeO-5-F-Ph, reference compound] was run?
Its EC50 is 0.9 nM.

Which EC50 does the source give for `CC1=CC(C)(C)Nc2ccc3c(c21)/C(=C/c1ccccc1F)Oc1ccc(Cl)cc1-3` [Formula II X=9-Cl 2-F-Ph, reference compound] here?
Its EC50 is 26.5 nM.

Which EC50 does the source give for `COc1ccc2c(c1)O/C(=C\c1cccc(F)c1)c1c-2ccc2c1C(C)=CC(C)(C)N2` [Formula II X=8-OMe 3-F-Ph, reference compound] here?
Its EC50 is 8.6 nM.

For `CCC1Oc2ccc(F)cc2-c2ccc3c(c21)C(C)=CC(C)(C)N3` (centres unmarked) [Formula I X=9-F Et, reference compound], which EC50 is on record?
The EC50 was 9 nM.

`COc1ccc2c(c1)O/C(=C\c1ccccc1C)c1c-2ccc2c1C(C)=CC(C)(C)N2` [Formula II X=8-OMe 2-Me-Ph, reference compound] was tested. Which EC50 did it give?
Its EC50 is 3.5 nM.

Which EC50 does the source give for `COc1ccccc1/C=C1\Oc2ccc(F)cc2-c2ccc3c(c21)C(C)=CC(C)(C)N3` [Formula II X=9-F 2-MeO-Ph, reference compound] here?
Its EC50 is 0.93 nM.

For `COc1ccc2c(c1)O/C(=C\c1ccccc1Cl)c1c-2ccc2c1C(C)=CC(C)(C)N2` [Formula II X=8-OMe 2-Cl-Ph, reference compound], which EC50 is on record?
The EC50 was > 1000 nM.

`COc1ccc2c(c1)-c1ccc3c(c1/C(=C/c1ccccc1)O2)C(C)=CC(C)(C)N3` [Formula II X=9-OMe Phenyl, reference compound] was tested. Which EC50 did it give?
Its EC50 is 67 nM.

`CC1=CC(C)(C)Nc2ccc3c(c21)C(c1cccc(C)c1)Oc1ccccc1-3` (centres unmarked) [Formula I X=H 3-Me-Ph, reference compound] was tested. Which EC50 did it give?
The EC50 was 145 nM.

With `CC1=CC(C)(C)Nc2ccc3c(c21)/C(=C/c1ccccc1)Oc1ccc(O)cc1-3` [Formula II X=9-OH Phenyl, reference compound] as the compound, how does the EC50 read?
Its EC50 is 54.4 nM.

How did the EC50 turn out when `COc1ccc2c(c1)-c1ccc3c(c1C(c1cccc(C)c1)O2)C(C)=CC(C)(C)N3` (centres unmarked) [Formula I X=9-OMe 3-Me-Ph, reference compound] was run?
The EC50 was 11 nM.

How did the EC50 turn out when `CC1=CC(C)(C)Nc2ccc3c(c21)/C(=C/c1cccc(F)c1)Oc1ccc(O)cc1-3` [Formula II X=9-OH 3-F-Ph, reference compound] was run?
The EC50 was 5.75 nM.

Which EC50 does the source give for `CC1=CC(C)(C)Nc2ccc3c(c21)C(c1ccc(Cl)c(C)c1)Oc1ccc(Cl)cc1-3` (centres unmarked) [Formula I X=9-Cl 4-Cl-3-Me-Ph, reference compound] here?
The EC50 was 9.4 nM.

Which EC50 does the source give for `CC1=CC(C)(C)Nc2ccc3c(c21)C(c1cccc(Cl)c1)Oc1ccc(C)cc1-3` (centres unmarked) [Formula I X=9-Me 3-Cl-Ph, reference compound] here?
The EC50 was 4.85 nM.

Same assay, conditions: hPR agonist potencies (EC50 in nM) in the cotransfection assay, Tables 3 and 4, values without footnote

How did the EC50 turn out when `CC1=CC(C)(C)Nc2ccc3c(c21)C(C)Oc1c(F)cc(F)cc1-3` (racemic) [Compound 44, (±)-7,9-difluoro-1,2-dihydro-2,2,4,5-tetramethyl-5H-chromeno[3,4-f]quinoline] was run?
The EC50 was 1.4 nM.
